Data taken from the NIST ThermoML archive (doi:10.1016/j.jct.2011.12.030).
Numbers after ± are expanded uncertainties.

Settings: Liquid, Vibrating tube method

SMILES: COCC[N+]1(C)CCCC1.O=S(=O)([N-]S(=O)(=O)C(F)(F)F)C(F)(F)F
- mass density (278.15 K, 100 kPa): 1474.2 ± 2 kg/m3
- mass density (278.15 K, 1000 kPa): 1474.9 ± 2 kg/m3
- mass density (278.15 K, 10000 kPa): 1480.8 ± 2.2 kg/m3
- mass density (278.15 K, 20000 kPa): 1487 ± 2.4 kg/m3
- mass density (278.15 K, 40000 kPa): 1498.6 ± 2.8 kg/m3
- mass density (278.15 K, 60000 kPa): 1509.5 ± 3.3 kg/m3
- mass density (278.15 K, 80000 kPa): 1519.8 ± 3.7 kg/m3
- mass density (278.15 K, 100000 kPa): 1529.3 ± 4.2 kg/m3
- mass density (278.15 K, 120000 kPa): 1538.3 ± 4.7 kg/m3
- mass density (298.15 K, 100 kPa): 1453.5 ± 1.9 kg/m3
- mass density (298.15 K, 1000 kPa): 1454.1 ± 1.9 kg/m3
- mass density (298.15 K, 10000 kPa): 1460.2 ± 2.1 kg/m3
- mass density (298.15 K, 20000 kPa): 1466.9 ± 2.3 kg/m3
- mass density (298.15 K, 40000 kPa): 1479.2 ± 2.7 kg/m3
- mass density (298.15 K, 60000 kPa): 1490.6 ± 3.2 kg/m3
- mass density (298.15 K, 80000 kPa): 1501.4 ± 3.6 kg/m3
- mass density (298.15 K, 100000 kPa): 1511.4 ± 4.1 kg/m3
- mass density (298.15 K, 120000 kPa): 1520.9 ± 4.5 kg/m3
- mass density (313.15 K, 100 kPa): 1439.1 ± 1.9 kg/m3
- mass density (313.15 K, 1000 kPa): 1440.1 ± 1.9 kg/m3
- mass density (313.15 K, 10000 kPa): 1446.5 ± 2.1 kg/m3
- mass density (313.15 K, 20000 kPa): 1453.5 ± 2.3 kg/m3
- mass density (313.15 K, 40000 kPa): 1466.4 ± 2.7 kg/m3
- mass density (313.15 K, 60000 kPa): 1478.4 ± 3.1 kg/m3
- mass density (313.15 K, 80000 kPa): 1489.4 ± 3.5 kg/m3
- mass density (313.15 K, 100000 kPa): 1499.8 ± 4 kg/m3
- mass density (313.15 K, 120000 kPa): 1509.6 ± 4.4 kg/m3
- mass density (333.15 K, 100 kPa): 1420.8 ± 1.8 kg/m3
- mass density (333.15 K, 1000 kPa): 1421.6 ± 1.8 kg/m3
- mass density (333.15 K, 10000 kPa): 1428.5 ± 2 kg/m3
- mass density (333.15 K, 20000 kPa): 1435.9 ± 2.2 kg/m3
- mass density (333.15 K, 40000 kPa): 1449.5 ± 2.6 kg/m3
- mass density (333.15 K, 60000 kPa): 1462.2 ± 3 kg/m3
- mass density (333.15 K, 80000 kPa): 1473.7 ± 3.4 kg/m3
- mass density (333.15 K, 100000 kPa): 1484.6 ± 3.9 kg/m3
- mass density (333.15 K, 120000 kPa): 1494.8 ± 4.3 kg/m3
- mass density (348.15 K, 100 kPa): 1407.3 ± 1.8 kg/m3
- mass density (348.15 K, 1000 kPa): 1408 ± 1.8 kg/m3
- mass density (348.15 K, 10000 kPa): 1415.4 ± 2 kg/m3
- mass density (348.15 K, 20000 kPa): 1423.2 ± 2.2 kg/m3
- mass density (348.15 K, 40000 kPa): 1437.5 ± 2.5 kg/m3
- mass density (348.15 K, 60000 kPa): 1450.5 ± 3 kg/m3
- mass density (348.15 K, 80000 kPa): 1462.5 ± 3.4 kg/m3
- mass density (348.15 K, 100000 kPa): 1473.6 ± 3.8 kg/m3
- mass density (348.15 K, 120000 kPa): 1484.2 ± 4.2 kg/m3
- mass density (373.15 K, 100 kPa): 1385.3 ± 1.7 kg/m3
- mass density (373.15 K, 1000 kPa): 1385.7 ± 1.7 kg/m3
- mass density (373.15 K, 10000 kPa): 1393.4 ± 1.9 kg/m3
- mass density (373.15 K, 20000 kPa): 1401.8 ± 2.1 kg/m3
- mass density (373.15 K, 40000 kPa): 1417.2 ± 2.5 kg/m3
- mass density (373.15 K, 60000 kPa): 1430.9 ± 2.9 kg/m3
- mass density (373.15 K, 80000 kPa): 1443.5 ± 3.3 kg/m3
- mass density (373.15 K, 100000 kPa): 1455.2 ± 3.7 kg/m3
- mass density (373.15 K, 120000 kPa): 1466.3 ± 4.1 kg/m3
- mass density (398.15 K, 100 kPa): 1363.2 ± 1.7 kg/m3
- mass density (398.15 K, 1000 kPa): 1363.3 ± 1.7 kg/m3
- mass density (398.15 K, 10000 kPa): 1372 ± 1.8 kg/m3
- mass density (398.15 K, 20000 kPa): 1381 ± 2 kg/m3
- mass density (398.15 K, 40000 kPa): 1397.4 ± 2.4 kg/m3
- mass density (398.15 K, 60000 kPa): 1412 ± 2.8 kg/m3
- mass density (398.15 K, 80000 kPa): 1425.4 ± 3.2 kg/m3
- mass density (398.15 K, 100000 kPa): 1437.9 ± 3.6 kg/m3
- mass density (398.15 K, 120000 kPa): 1449.6 ± 4 kg/m3

SMILES: CCOS(=O)(=O)[O-].CCn1cc[n+](C)c1 [1-ethyl-3-methylimidazolium ethyl sulfate]
- mass density (278.15 K, 100 kPa): 1251.9 ± 0.9 kg/m3
- mass density (278.15 K, 1000 kPa): 1252.2 ± 0.9 kg/m3
- mass density (278.15 K, 10000 kPa): 1255.7 ± 1 kg/m3
- mass density (278.15 K, 20000 kPa): 1259.5 ± 1.1 kg/m3
- mass density (278.15 K, 40000 kPa): 1266.8 ± 1.4 kg/m3
- mass density (278.15 K, 60000 kPa): 1273.7 ± 1.6 kg/m3
- mass density (278.15 K, 80000 kPa): 1280.2 ± 1.8 kg/m3
- mass density (278.15 K, 100000 kPa): 1286.5 ± 2.1 kg/m3
- mass density (278.15 K, 120000 kPa): 1292.2 ± 2.4 kg/m3
- mass density (298.15 K, 100 kPa): 1237 ± 0.9 kg/m3
- mass density (298.15 K, 1000 kPa): 1237.3 ± 0.9 kg/m3
- mass density (298.15 K, 10000 kPa): 1241 ± 1 kg/m3
- mass density (298.15 K, 20000 kPa): 1245 ± 1.1 kg/m3
- mass density (298.15 K, 40000 kPa): 1252.6 ± 1.3 kg/m3
- mass density (298.15 K, 60000 kPa): 1259.7 ± 1.5 kg/m3
- mass density (298.15 K, 80000 kPa): 1266.5 ± 1.8 kg/m3
- mass density (298.15 K, 100000 kPa): 1273.1 ± 2 kg/m3
- mass density (298.15 K, 120000 kPa): 1279.3 ± 2.3 kg/m3
- mass density (313.15 K, 100 kPa): 1226.6 ± 0.9 kg/m3
- mass density (313.15 K, 1000 kPa): 1227 ± 0.9 kg/m3
- mass density (313.15 K, 10000 kPa): 1230.8 ± 1 kg/m3
- mass density (313.15 K, 20000 kPa): 1235 ± 1.1 kg/m3
- mass density (313.15 K, 40000 kPa): 1242.8 ± 1.3 kg/m3
- mass density (313.15 K, 60000 kPa): 1250.3 ± 1.5 kg/m3
- mass density (313.15 K, 80000 kPa): 1257.3 ± 1.7 kg/m3
- mass density (313.15 K, 100000 kPa): 1264.1 ± 2 kg/m3
- mass density (313.15 K, 120000 kPa): 1270.5 ± 2.2 kg/m3
- mass density (333.15 K, 100 kPa): 1213 ± 0.9 kg/m3
- mass density (333.15 K, 1000 kPa): 1213.4 ± 0.9 kg/m3
- mass density (333.15 K, 10000 kPa): 1217.4 ± 1 kg/m3
- mass density (333.15 K, 20000 kPa): 1221.7 ± 1.1 kg/m3
- mass density (333.15 K, 40000 kPa): 1230 ± 1.3 kg/m3
- mass density (333.15 K, 60000 kPa): 1237.8 ± 1.5 kg/m3
- mass density (333.15 K, 80000 kPa): 1245.2 ± 1.7 kg/m3
- mass density (333.15 K, 100000 kPa): 1252.3 ± 1.9 kg/m3
- mass density (333.15 K, 120000 kPa): 1259.1 ± 2.1 kg/m3
- mass density (348.15 K, 100 kPa): 1203.1 ± 0.9 kg/m3
- mass density (348.15 K, 1000 kPa): 1203.6 ± 0.9 kg/m3
- mass density (348.15 K, 10000 kPa): 1207.7 ± 0.9 kg/m3
- mass density (348.15 K, 20000 kPa): 1212.3 ± 1 kg/m3
- mass density (348.15 K, 40000 kPa): 1220.9 ± 1.2 kg/m3
- mass density (348.15 K, 60000 kPa): 1228.9 ± 1.4 kg/m3
- mass density (348.15 K, 80000 kPa): 1236.5 ± 1.6 kg/m3
- mass density (348.15 K, 100000 kPa): 1243.8 ± 1.9 kg/m3
- mass density (348.15 K, 120000 kPa): 1250.8 ± 2.1 kg/m3
- mass density (373.15 K, 100 kPa): 1187.3 ± 0.8 kg/m3
- mass density (373.15 K, 1000 kPa): 1187.3 ± 0.8 kg/m3
- mass density (373.15 K, 10000 kPa): 1191.8 ± 0.9 kg/m3
- mass density (373.15 K, 20000 kPa): 1196.6 ± 1 kg/m3
- mass density (373.15 K, 40000 kPa): 1205.8 ± 1.2 kg/m3
- mass density (373.15 K, 60000 kPa): 1214.2 ± 1.4 kg/m3
- mass density (373.15 K, 80000 kPa): 1222.2 ± 1.6 kg/m3
- mass density (373.15 K, 100000 kPa): 1229.7 ± 1.8 kg/m3
- mass density (373.15 K, 120000 kPa): 1237 ± 2 kg/m3
- mass density (398.15 K, 100 kPa): 1171.4 ± 0.8 kg/m3
- mass density (398.15 K, 1000 kPa): 1171 ± 0.8 kg/m3
- mass density (398.15 K, 10000 kPa): 1175.9 ± 0.9 kg/m3
- mass density (398.15 K, 20000 kPa): 1181 ± 1 kg/m3
- mass density (398.15 K, 40000 kPa): 1190.7 ± 1.1 kg/m3
- mass density (398.15 K, 60000 kPa): 1199.7 ± 1.3 kg/m3
- mass density (398.15 K, 80000 kPa): 1208.1 ± 1.5 kg/m3
- mass density (398.15 K, 100000 kPa): 1216 ± 1.7 kg/m3
- mass density (398.15 K, 120000 kPa): 1223.4 ± 1.9 kg/m3
